The test system of experiment [1] is h18-Ψ (RNA, rRNA, pseudouridine at 516 (E. coli numbering; residue 6 of the 30-nt model)) CUCCGUGCCAGCAGCCGCGGUAAUACGGAG
Briefly: CD titration at 265 nm. Particulars: 15 mM KCl, 4 mM MgCl2; 20 mM potassium cacodylate pH 7.0, 30 °C; 5 µM RNA (Methods print a different CD buffer, pH 7.6).

In experiment [2] the test system is h18-U (RNA, rRNA) CUCCGUGCCAGCAGCCGCGGUAAUACGGAG
Put plainly: CD titration at 265 nm. Particulars: 15 mM KCl, 4 mM MgCl2; 20 mM potassium cacodylate pH 7.0, 30 °C; 5 µM RNA (Methods print a different CD buffer, pH 7.6).

Here are results for one compound from article PMC10525438 (2023).

Each structure is given as a SMILES string.

One may read the Kd as the concentration at which binding is half-saturated. Read a high Kd as weaker binding.

On to `CN[C@@H]1[C@H](O[C@H]2[C@H](O[C@H]3[C@H](O)[C@@H](O)[C@H](N=C(N)N)[C@@H](O)[C@@H]3N=C(N)N)O[C@@H](C)[C@]2(O)C=O)O[C@@H](CO)[C@H](O)[C@H]1O`, for which the Kd was 23 ± 3 µM in experiment [1] and 63 ± 1 µM in experiment [2].
